Laboratory results taken from patent publication US20140221286A1, “SODIUM CHANNEL BLOCKERS REDUCE GLUCAGON SECRETION” (Gilead Sciences, Inc., priority 2011, published 2014).

Columns and labels:
[1] = system: rat isolated pancreatic α-cell; experiment: Spontaneous electrical activity of isolated pancreatic α-cells (membrane potential recording); assay type: cell-based
Method: Acutely isolated pancreatic islets were allowed to recover overnight at 37° C./5% CO2 in Islet Media (RMPI 1640 supplemented with 10 mM HEPES, 1 mM sodium pyruvate, 10% FBS, 100 U/mL penicillin, 100 μg/mL streptomycin, 2 mM L-glutamine). The islets were resuspended and then centrifuged for 3 minutes at 200×g. […] The number of live cells was counted and diluted to 1×10^5 with Islet Media. […]
Membrane potential and ion channel currents were recorded 24-72 hours after dispersion using the perforated patch configuration. […] Series resistance (Rs) was monitored using a voltage step from −70 mV to 0 mV (5 ms, 0.5 Hz) and was allowed to stabilize prior to beginning the experiment (Rs<30 MOhm).
The identity of the α-cell was confirmed using cell size (membrane capacitance <6 pF) and the presence of electrical activity in low (3 mM) extracellular glucose, which are hallmarks of dispersed α-cells. […] All recordings were made using pClamp 10.2 and were analyzed using Microsoft Excel 2003, Graphpad Prism7 or OriginPro7.
Recordings of membrane potential were made at 32° C. […] Representative records (30 sec) were analyzed using the event detection feature (threshold of 10 mV) to quantitate the spontaneous firing frequency and total charge movement. The membrane potential between events was measured for changes induced by the compound. […]

rat pancreatic islets = experiment: Epinephrine-induced glucagon secretion in rat pancreatic islets; assay type: cell-based; conditions: epinephrine 5 μM; at 30 μM
[2] = system: STZ-induced diabetic mice; experiment: STZ-induced diabetic mouse, animal model of type 1 diabetes; assay type: in vivo
Method: Streptozotocin (STZ) induces diabetes by selectively destroying the pancreatic β-cells. Five-week old male C57BL/6J mice were injected with STZ (40 mg/kg, i.p., dissolved in cold 0.025 mol/L sodium citrate-buffered solution at pH 4.5, freshly made right before injection) for 5 consecutive days to induce diabetes. Fasting plasma glucose (FPG) levels were determined 2 days after STZ treatment. Diabetic mice were then divided into STZ+vehicle and STZ+ranolazine group (10 mice/group) based on body weight (BW) and blood glucose levels. Age and gender matched non-diabetic mice were used as “normal” controls (n=3). For the following 8 weeks, mice were given either vehicle or ranolazine (20 mg/kg in water, p.o., twice daily). BW and FPG levels were monitored once a week. HbA1c levels were measured using a DCA 2000+ clinical analyzer (Siemens) at 0, 4 and 8 weeks of treatment. At the end of the treatment, pancreases from all groups were collected, fixed in 10% formalin overnight and then embedded in paraffin. HE staining and fluorescent staining were performed to review the islet morphology in all groups.

[3] = after 8 weeks treatment, fluorescence staining

Structure (SMILES) | reduction of spontaneous electrical activity ([1]; at 0.3 μM) [%] | reduction of epinephrine-induced increase of glucagon secretion (rat pancreatic islets) [%] | fasting plasma glucose (FPG) ([2]; 20 mg/kg p.o. twice daily, week 4) [mg/dL] | fasting plasma glucose (FPG) ([2]; 20 mg/kg p.o. twice daily, week 6 to week 8) [mg/dL] | HbA1c ([2]; 20 mg/kg p.o. twice daily, week 8) [%] | insulin-positive area per islet [2, 3] [%] | percentage of total islet (insulin and glucagon) area [2, 3] [%] | reduction of spontaneous electrical activity ([1]; 10 μM) [%]
FC(F)(F)Oc1ccc(-c2ccc3nnc(C(F)(F)F)n3c2)cc1 [Compound A, 6-(4-(trifluoromethoxy)phenyl)-3-(trifluoromethyl)-[1,2,4]triazolo[4,3-α]pyridine] | 75 |  |  |  |  |  |  | 
COc1ccccc1OCC(O)CN1CCN(CC(=O)Nc2c(C)cccc2C)CC1 (racemic) [Ranolazine, ±-N-(2,6-dimethylphenyl)-4-[2-hydroxy-3-(2-methoxyphenoxy)-propyl]-1-piperazineacetamide] |  | 44±8 | 264 ± 30 | 188 ± 20 | 4.6±0.2 | 69±2.4 | 0.30±0.03 | 44
